# Experimental data as given in patent US20220031800A1, “PEPTIDES FOR TREATING NON-EXUDATIVE MACULAR DEGENERATION AND OTHER DISORDERS OF THE EYE” (Allegro Pharmaceuticals, LLC, priority 2019, published 2022).
# Square brackets hold non-standard residues; d marks the D form. Peptide text beside a SMILES is read from it. Cya = N[C@@H](CS(=O)(=O)O)C(=O)O
# How the values were obtained:
# [1] = system: human retinal Müller cells (MIO-M1); experiment: Mitochondrial membrane potential (JC-1) in human Müller cells (MIO-M1); assay type: cell-based; conditions: 1× of 1 mg/50 μL, 24 hours; normalized to untreated control as 100%
# Experimental: Purpose: To determine the effects of risuteganib on the mitochondrial membrane potential (ΔΨm) in cultured human retinal Müller cells (MIO-M1). Loss of ΔΨm is a marker for early cell death.
# Methods: The immortalized human retinal Müller cell line (MIO-M1) was obtained from the Department of Cell Biology of the University College, London. Cells were cultured in Dulbecco's Modified Eagle's Medium (DMEM) and plated in 24-well plates for 24 hours before treatment with 1× concentration of 1 mg/50 μL risuteganib, ranibizumab, bevacizumab, or aflibercept. Dosage was based on clinical dose of each compound. The experiments were repeated 3 times with 6 replicates each. After 24 hours drug treatment, the ΔΨm was measured using the JC-1 kit, a cationic dye that fluoresces red within the mitochondria of healthy, live cells. In the stressed or apoptotic cells, the mitochondrial membrane potential collapses and the cationic dye fluoresces green. First, cells were rinsed with fresh media and then incubated with the JC-1 reagent for 15 minutes at 37 degrees C. The dyes were then removed, and phosphate buffered saline was added to each well. The Red fluorescence (live cells) was read at EX 550 nm and EM 600 nm. The Green fluorescence (apoptotic cells) was read at EX 483 nm and EM 535 nm. The changes in ΔΨm were calculated by the ratio of red to green fluorescence. […]
# primary human RPE cells [2] = experiment: WST-1 cell viability of primary human RPE cells exposed to hydroquinone; assay type: cell-based; conditions: 0.4 mM risuteganib co-treatment with HQ 125-180 uM
# Experimental: (§1) Purpose: To determine if risuteganib protects against hydroquinone (HQ)-mediated cell injury, elevated ROS level and reduced mitochondrial membrane potential (Δψm) in cultured human RPE cells. Elevated ROS levels increase oxidative stress in the cells, leading to reduced cell health and cell death. Loss of ΔΨm is a marker for early cell death. Methods: Primary human RPE cells were seeded on collagen-coated 96-well plates in triplicates at 8K, 10K and […] cells/well, respectively. Cells reached 80% to 100% confluence 24 hours after plating, and confluent cells were then grown for an additional 4 or 5 days until growth was density arrested. On day 6 after plating, cells in the plate upper half were loaded with 20 μM CM-H2DCFDA (measures ROS level) and in the plate lower half with 10 μM JC-1 (measures Δψm) for 30 minutes at 37° C. […] For the ROS and Δψm assays, a fluorescence plate reader was used to quantify ROS production (490-nm excitation, 522-nm emission), and green monomer of JC-1 (490-nm excitation, 522-nm emission) and red JC-1 aggregate (535-nm excitation, 590-nm emission), respectively. […] The WST reagent was quantified with a plate reader at 440 nm and a reference wavelength at 690 nm. Data were normalized to untreated control as 100% and were expressed as the mean±SD.
# primary human RPE cells [3] = experiment: ROS level (CM-H2DCFDA) in primary human RPE cells exposed to hydroquinone; assay type: cell-based; conditions: 0.4 mM risuteganib co-treatment with HQ 125-180 uM
# Experimental: as §1
# [4] = system: human RPE cells (ARPE-19); experiment: Trypan blue viability of human RPE cells (ARPE-19) exposed to hydrogen peroxide; assay type: cell-based; conditions: 1.0 mg/mL risuteganib alone
# Experimental: Purpose: Investigate cytoprotective properties of risuteganib in human RPE cells (ARPE-19) exposed to hydrogen peroxide, which is a reactive oxygen species that can induce cell death at elevated levels. Methods: ARPE-19 cells were cultured in laminin-coated trans-wells for 2 weeks to induce differentiation. Cells were then exposed to the experimental conditions: […]
# [5] = system: primary mouse Müller cells; experiment: Trypan blue viability of primary mouse Müller cells exposed to kainic acid; assay type: cell-based, CD1 mice; conditions: 1.0 mg/mL risuteganib alone
# Excerpt: Purpose: Investigate neuroprotective properties of risuteganib in primary mouse Müller cells exposed to kainic acid, a neuroexcitatory compound that activates glutamate receptors, resulting in overstimulation and cell death. Retinal Müller cells support normal functions of neurons and their dysregulation can leads to loss of homeostasis and neuronal cell death.
# Methods: Fresh retina were collected from CD1 mice and then mechanically dissociated with sterile Pasteur pipette into small aggregates and seeded into 35 mm culture dishes. All cultures were first left unchanged for 5-6 days and then replenished every 3-4 days. When the cell growth had reached around 80% confluency, retinal aggregates and debris were removed by media washes to form a purified cell monolayer. Cells were then exposed to the experimental conditions: (1) untreated control, (2) 1.0 mg/mL risuteganib, (3) 500 μM kainic acid (KA), and (4) 1.0 mg/mL risuteganib for 24 hours before 500 μM kainic acid exposure. 48 hours after kainic acid treatment, dead and live cell numbers were measured using Trypan blue exclusion assay on a hemocytometer.
# [6] = system: study eye of subjects with intermediate non-exudative AMD; experiment: Microperimetry (mean retinal sensitivity, number of loci summed); assay type: in vivo, human
# Excerpt: Table 9, below, summarizes number of loci with reduced retinal sensitivity summed across assessments using a 20-dB threshold, an 11-dB threshold, and by measuring absolute scotoma.
# [7] = system: study eye of subjects with intermediate non-exudative AMD; experiment: Low-luminance visual acuity; assay type: in vivo, human
# Experimental: Numerous study assessments were conducted at various time points throughout the study. Included among these study assessments were; refractive eye examinations, determinations of BCVA AND low-luminance BCVA, Lanthony D-15 color vision test, measurement of intraocular pressure (IOP), Indirect ophthalmoscopy/dilated fundus examinations and spectral-domain optical coherence tomography (SD-OCT). Also, blood and saliva samples were obtained from each subject for genetic analysis. The above-listed study assessments were performed at the time points indicated in Table 1, below: Table 10, below, summarizes low-luminescence visual acuity in the study subjects.
# [8] = Week 12 change, Group 2 (1 mg IVT day 1 + wk 16)
# [9] = Week 32, Group 2 (1 mg IVT day 1 + wk 16)
# [10] = Week 32 change, Group 1 crossover (sham day 1, 1 mg IVT wk 16)
# [11] = Week 32 change, Group 2 (1 mg IVT day 1 + wk 16)
# [12] = Week 12, Group 2 (1 mg IVT day 1 + wk 16)
# [13] = Week 32, Group 1 crossover (sham day 1, 1 mg IVT wk 16)
compound,measurement,setting,value
"C[C@@H](O)[C@H](NC(=O)[C@H](CS(=O)(=O)O)NC(=O)CNC(=O)[C@H](CCCNC(=N)N)NC(=O)CN)C(=O)N1CCC[C@H]1C(=O)O [risuteganib, Glycyl-L-arginylglycyl-3-sulfo-L-alanyl-L-threonyl-L-proline] (H-GRG[Cya]TP-OH)","Mitochondrial membrane potential (ΔΨm, red/green JC-1 ratio)",[1],109.3±4.91
same,Improvement of HQ-reduced cell viability,primary human RPE cells [2],16%
same,Reduction of HQ-induced ROS production,primary human RPE cells [3],61%
same,"Change in cell viability, treatment alone",[4],did not induce detectable change in cell viability
same,"Change in cell viability, treatment alone",[5],did not induce detectable change in cell viability
same,"Microperimetry number of loci summed change, median",[6]; [8],4.0
same,"Microperimetry number of loci summed change, mean","[6]; Week 12 change, Group 2 (1 mg IVT day 1 + wk 16), increase = worsening",6.1
same,"Microperimetry number of loci summed (reduced sensitivity), mean",[6]; [9],80.7
same,"Microperimetry number of loci summed change, median",[6]; [10],−1.0
same,"Microperimetry number of loci summed change, median",[6]; [11],−3.0
same,Decrease (improvement) in number of summed loci with reduced retinal sensitivity,[6]; risuteganib responders at Week 32 (FIG. 7),17.75
same,"Low-luminance visual acuity letters read, mean",[7]; [12],46.4 letters read
same,"Low-luminance visual acuity letters read, median",[7]; [12],48.0 letters read
same,"Low-luminance visual acuity change in letters read, median",[7]; [8],−1.0 letters read
same,"Low-luminance visual acuity letters read, mean",[7]; [13],50.7 letters read
same,"Low-luminance visual acuity letters read, median",[7]; [13],57.0 letters read
same,"Low-luminance visual acuity letters read, mean",[7]; [9],49.4 letters read
same,"Low-luminance visual acuity letters read, median",[7]; [9],51.0 letters read
same,"Low-luminance visual acuity change in letters read, mean",[7]; [10],2.6 letters read
same,"Low-luminance visual acuity change in letters read, median",[7]; [10],3.0 letters read
same,"Low-luminance visual acuity change in letters read, mean",[7]; [11],2.0 letters read
same,"Low-luminance visual acuity change in letters read, median",[7]; [11],0.0 letters read
